{"source": "patent US20200306210A1", "about": "(ZOGENIX INTERNATIONAL LIMITED, priority 2017, published 2020)", "key": {"[1]": {"system": "subjects with Dravet syndrome", "assay": "Study 1503: open-label long-term extension, CGI-I at baseline and final visit", "assay_type": "in vivo, Human", "details": "OLE Final Visit", "description": "Study 1503 was an open-label, long-term safety study of ZX008 in subjects with Dravet syndrome who successfully completed 14 weeks of treatment in 1501, 1502, or 1504 Cohorts 1 and 2. […] CGI-S(baseline scores) were determined at entry into 1503 (i.e., after completing a blinded 16 week trial) and then again at each patient's final visit. FIGS. 7 and 8, and Tables 3 and 4 present numbers of patients having each of the 7 ratings and statistical calculations of improvements.\n(§1) The CGI scale measures the change in the subject's clinical status from a specific point in time, i.e., the Baseline Period (and also referred to as the CGI-S, an initial ranking of severity). The CGI rating scale permits a global evaluation of the subject's improvement over time."}, "[2]": {"system": "children and young adults with Dravet syndrome", "assay": "Study 1: Clinical Global Impression of Improvement (CGI-I)", "assay_type": "in vivo, Human", "details": "either 0.2 or 0.8 mg/kg/day dose", "description": "CGI-S and CGI-I ratings were made by clinical investigators and parent/caregivers in a series of phase III trials of fenfluramine. CGI changes were measured in two randomized, controlled trials with results reported herein. Study 1 was conducted as described in Example 1 and CGI ratings were made according to a set schedule of visits made to the clinic. Tables of results and bar graphs of the statistical analyses of CGI ratings for Study 1 at visit twelve (day 113) are provided in FIGS. 1-4. […] Similar results were obtained with investigator CGI-I rating.\nIn Study 1, subjects were assessed using Clinical Global Impression (CGI), allowing the parent/caregiver and principal investigator to assess improvement, as well as the Quality of Life in Childhood Epilepsy (QOLCE) Scale and the Pediatric Quality of Life Inventory (PedsQL) to measure changes in the quality of life of the subject. Comparisons between treatment groups were made using Wilcoxon rank sum tests.\nas §1"}, "[3]": {"system": "Dravet syndrome patients", "details": "cited from earlier work"}, "[4]": {"system": "Dravet syndrome patients", "details": "Dravet syndrome (Devinsky, NEJM 2017); cited from earlier work"}, "[5]": {"target": "serotonin 5-HT2A receptor (Homo sapiens, UniProt P28223)", "sequence (P28223 whole entry)": "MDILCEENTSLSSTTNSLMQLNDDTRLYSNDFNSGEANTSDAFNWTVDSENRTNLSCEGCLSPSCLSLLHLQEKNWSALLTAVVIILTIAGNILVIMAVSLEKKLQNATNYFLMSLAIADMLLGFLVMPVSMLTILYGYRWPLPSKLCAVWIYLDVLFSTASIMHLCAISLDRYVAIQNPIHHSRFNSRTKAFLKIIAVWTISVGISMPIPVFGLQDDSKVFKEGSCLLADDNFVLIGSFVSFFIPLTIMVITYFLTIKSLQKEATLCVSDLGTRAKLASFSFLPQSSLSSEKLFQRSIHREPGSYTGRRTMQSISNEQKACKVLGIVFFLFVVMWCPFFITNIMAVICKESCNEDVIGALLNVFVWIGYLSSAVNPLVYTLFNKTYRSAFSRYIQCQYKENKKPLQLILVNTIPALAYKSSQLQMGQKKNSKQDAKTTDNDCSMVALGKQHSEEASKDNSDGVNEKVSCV", "details": "cited from earlier work"}, "[6]": {"target": "T1, serotonin 5-HT2C receptor (Homo sapiens, UniProt P28335)", "T1 sequence (P28335 33-458)": "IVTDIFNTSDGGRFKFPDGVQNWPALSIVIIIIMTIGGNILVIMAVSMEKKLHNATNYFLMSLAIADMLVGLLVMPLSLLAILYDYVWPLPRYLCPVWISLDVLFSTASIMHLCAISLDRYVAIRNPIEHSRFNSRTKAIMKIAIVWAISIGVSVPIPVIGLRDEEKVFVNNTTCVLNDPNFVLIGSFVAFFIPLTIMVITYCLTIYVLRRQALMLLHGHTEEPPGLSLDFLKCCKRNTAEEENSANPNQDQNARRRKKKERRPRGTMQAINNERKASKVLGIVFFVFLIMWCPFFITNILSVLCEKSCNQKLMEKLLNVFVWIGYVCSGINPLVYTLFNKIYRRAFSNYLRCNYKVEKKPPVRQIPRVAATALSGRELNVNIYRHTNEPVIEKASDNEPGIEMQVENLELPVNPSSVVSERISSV", "details": "cited from earlier work"}, "[7]": {"target": "serotonin 5-HT2B receptor (Homo sapiens, UniProt P41595)", "sequence (P41595 whole entry)": "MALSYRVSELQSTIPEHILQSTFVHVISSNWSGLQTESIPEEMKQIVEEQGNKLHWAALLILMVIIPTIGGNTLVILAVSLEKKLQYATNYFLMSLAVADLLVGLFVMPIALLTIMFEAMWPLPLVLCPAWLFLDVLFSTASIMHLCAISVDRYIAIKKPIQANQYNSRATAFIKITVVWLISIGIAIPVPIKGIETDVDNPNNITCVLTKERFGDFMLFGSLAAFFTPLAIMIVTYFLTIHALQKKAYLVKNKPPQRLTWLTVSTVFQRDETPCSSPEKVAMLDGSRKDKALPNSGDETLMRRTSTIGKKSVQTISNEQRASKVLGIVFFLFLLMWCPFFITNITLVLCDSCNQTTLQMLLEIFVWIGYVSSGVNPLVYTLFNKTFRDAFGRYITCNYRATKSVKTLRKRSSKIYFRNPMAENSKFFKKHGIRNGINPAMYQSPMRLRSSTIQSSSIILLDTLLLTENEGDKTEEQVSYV", "details": "cited from earlier work"}}}
{"smiles": "CCNC(C)Cc1cccc(C(F)(F)F)c1", "note": "(racemic) [fenfluramine, (RS)—N-ethyl-1-[3-(trifluoromethyl)phenyl]propan-2-amine, reference compound]", "values": [{"measurement": "CGI-I investigator, Improved (1, 2, 3), %", "setting": "[1]", "value": 85.4, "unit": "%"}, {"measurement": "CGI-I investigator, Much/very much improved (1, 2), %", "setting": "[1]", "value": 64.2, "unit": "%"}, {"measurement": "CGI-I parent/caregiver, Improved (1, 2, 3), %", "setting": "[1]", "value": 82.3, "unit": "%"}, {"measurement": "CGI-I parent/caregiver, Much/very much improved (1, 2), %", "setting": "[1]", "value": 62.5, "unit": "%"}, {"measurement": "Parents/caregivers rating their children 'very much improved' or 'much improved' (CGI-I) vs placebo group", "setting": "[2]", "value": "Significantly more"}]}
{"smiles": "CC(C)(C)C(O)/C=C/c1ccc2c(c1)OCO2", "note": "(stereo not shown) [Stiripentol, stiripentol]", "values": [{"measurement": "Reduction of tonic-clonic seizure rate", "setting": "[3]", "value": 70, "unit": "%"}]}
{"smiles": "C=C(C)[C@@H]1CCC(C)=C[C@H]1c1c(O)cc(CCCCC)cc1O", "note": "[cannabidiol]", "values": [{"measurement": "Cognitive function, active treatment groups vs placebo", "setting": "[4]", "value": "did not achieve significant difference from placebo"}]}
{"smiles": "CC(N)Cc1cccc(C(F)(F)F)c1", "note": "(stereo not shown) [norfenfluramine]", "values": [{"measurement": "Binds to and activates serotonin 5-HT2A receptor, affinity", "setting": "[5]", "value": "moderate affinity"}, {"measurement": "Binds to and activates serotonin 5-HT2C receptor, affinity", "setting": "[6]", "value": "high affinity"}, {"measurement": "Binds to and activates serotonin 5-HT2B receptor, affinity", "setting": "[7]", "value": "high affinity"}]}
